Here are results for 12 compounds from paper PMC4698308, “A new amino acid substitution (Ala-205-Phe) in acetolactate synthase (ALS) confers broad spectrum resistance to ALS-inhibiting herbicides” (Planta, 2015).

pIC50: −log10 of the molar value. Where two headings read alike, the source gives them in different places.

Assay [1] addresses T1, recombinant Arabidopsis thaliana ALS wild-type enzyme (WT—sensitive) (Arabidopsis thaliana, UniProt P17597).
T1 construct: Protein constructs contained an 85 amino acid N-terminal deletion (chloroplast transit peptide); Hexa-histidine tag (N); made in house
The assay is described as follows: biochemical. As to the method:
(§1) Effects of SNPs identified in sequencing analysis on ALS activity were studied using A. thaliana. The ALS gene from A. thaliana and derivatives thereof were de novo synthesized and subcloned into pET-24d(+) (Life Technologies. Grand Island, NY, USA) using NcoI and XhoI restriction sites. Protein constructs contained an 85 amino acid N-terminal deletion (chloroplast transit peptide) and the addition of an N-terminal Hexa-histidine tag to facilitate purification.
(§2) Lysis was performed by at least two passes through a fluidizer, followed by centrifuging at 80000×g for 30 min at 4 °C. […] Fractions containing ALS protein were pooled and stored at −20 °C.
(§3) Inhibitors, purchased from Sigma as Pestanal standards (Sigma-Aldrich, Deisenhofen, Germany), were dissolved in DMSO and added to the reaction mixture. Inhibitors evaluated included imidazolinone, sulfonylurea, triazolopyrimidines, sulfonylamino-carbonyl- triazolinones, and pyrimidinyl (thio) benzoate herbicides. The reaction mixture was incubated at 30 °C for 60 min and stopped with 70 µl of H2SO4 (3 M). The reaction was then heated to 56 °C for 15 min to convert acetolactate into acetoin. […] For each inhibitor, resistance factors were calculated by dividing IC50 values for mutant and sensitive ALS.

Assay [2] concerns recombinant Arabidopsis thaliana ALS variant A205F. In kind it is biochemical. The conditions noted are these: IC50 mutant divided by IC50 sensitive ALS; max inhibitor concentration 1.00 × 10^−04 M. As to the method:
as §1, §2, §3

Assay [3] concerns recombinant Arabidopsis thaliana ALS variant A205V. Format: biochemical. The conditions noted are these: IC50 mutant divided by IC50 sensitive ALS; max inhibitor concentration 1.00 × 10^−04 M. On the procedure: as §1, §2, §3
The test system of assay [4] is recombinant Arabidopsis thaliana ALS variant W574L. Format: biochemical. As to conditions: IC50 mutant divided by IC50 sensitive ALS; max inhibitor concentration 1.00 × 10^−04 M. On the procedure:
as §1, §2, §3

For assay [5], the system named is annual bluegrass (Poa annua L.). In words: Whole plant confirmation of target-site resistance (visual control and dry biomass 28 days after treatment). In kind it is in vivo. On the procedure: Progeny of all POAAN-R3 plants subjected to genetic sequencing (RP1–RP8) were surface seeded into separate 10.2 × 10.2 cm greenhouse pots (Dillen Products/Myers Industries, Inc. Middlefield, OH, USA.) filled with a peat moss growing medium (ProMix BX Mycorrhizae. Premier Tech Horticulture, Quakertown, PA, USA) on 5 January 2015. The susceptible annual bluegrass population (S) included in our sequencing analysis was also seeded in the same fashion.
After seeding, pots were placed inside a growth chamber (Conviron A1000. Controlled Environments Inc, Hendersonville, NC) configured to provide 14 h day at 19 °C and a 10 h night at 10 °C. Light intensity inside the chamber averaged 296 μmol m^−2 s^−1. Irrigation was applied to each pot daily using distilled water and a misting nozzle. Annual bluegrass emergence was first noted on 16 January 2015. Plants remained inside the growth chamber until 26 January 2015. On this date, seedlings of each plant (RP1–RP8, S) were transplanted into individual 164 cm^3 plastic conical containers (SC10 Super Cell Cone-tainer. Stuewe and Sons. Tangent, OR 97389) filled with Sequatchie silt loam (fine-loamy, siliceous, semiactive, thermic humic Hapludult) measuring 6.2 in soil pH and 2.1 % in organic matter content. Transplants were replicated such that 32 plastic conical containers were created for each annual bluegrass plant analyzed in previous experiments (RP1–RP8, S). Immediately after transplanting, plastic conical containers were placed in a glasshouse located at the University of Tennessee (Knoxville, TN, USA; 35.56, 83.56). Peak light intensity in this glasshouse averaged 714 μmol m^−2 s^−1 with day/night temperatures averaging 27/17 °C. Irrigation was applied daily using an overhead misting system and plants were not clipped prior to initiating this study.
Plants were allowed to acclimate to this glasshouse environment for 10 days prior to being treated with foramsulfuron (Revolver. Bayer Environmental Sciences. Research Triangle Park, NC, USA) at 29 g ha^−1, imazamox (Clearcast. BASF Corporation. Research Triangle Park, NC) at 140 g ha^−1, or simazine (Princep 4L. Syngenta Professional Products. Greensboro, NC) at 1120 g ha^−1. Per label recommendations, imazamox and simazine treatments included a non-ionic surfactant (Activator-90. Loveland Products Inc. Greeley, CO, USA) at 0.25 % v/v. All treatments were applied in an enclosed spray chamber (Generation III track sprayer. DeVries Manufacturing, Hollandale, MN, USA) using a water carrier at 215 L ha^−1 through an 8004 EVS nozzle (TeeJet, Technologies, Spraying Systems Co., Glendale Heights, IL, USA). These herbicide treatments were selected to confirm results of genetic sequencing that RP1–RP8 were resistant to sulfonylurea, imidazolinone, and photosystem II inhibiting herbicides. A non-treated control treatment was included with each resistant (RP1–RP8) and susceptible (S) plant for comparison. Herbicides were applied on 5 February 2015 when plants were at a two-to-three leaf stage, prior to annual bluegrass tiller formation.
Annual bluegrass control was visually assessed on a 0 (i.e., no control) to 100 % (i.e., complete kill) scale relative to the non-treated 28 days after treatment. After all control data had been collected, aboveground biomass was harvested from each plastic conical container at the soil line using scissors, dried at 100 °C for 3 days, and weighed.
Treatments were arranged as a 9 × 4 factorial with nine plant selections (i.e., RP1–RP8, S) and four herbicide treatments (i.e., foramsulfuron, imazamox, simazine, non-treated) in a completely randomized design with four replications and repeated in time and space during February 2015. Plants were the same age during both experimental runs.

[6] abbreviates: concentration for 50 % inhibition of WT enzyme, max inhibitor concentration 1.00 × 10^−04 M, read-out: WT sensitivity [IC50].

T1 sequence (P17597 86-670): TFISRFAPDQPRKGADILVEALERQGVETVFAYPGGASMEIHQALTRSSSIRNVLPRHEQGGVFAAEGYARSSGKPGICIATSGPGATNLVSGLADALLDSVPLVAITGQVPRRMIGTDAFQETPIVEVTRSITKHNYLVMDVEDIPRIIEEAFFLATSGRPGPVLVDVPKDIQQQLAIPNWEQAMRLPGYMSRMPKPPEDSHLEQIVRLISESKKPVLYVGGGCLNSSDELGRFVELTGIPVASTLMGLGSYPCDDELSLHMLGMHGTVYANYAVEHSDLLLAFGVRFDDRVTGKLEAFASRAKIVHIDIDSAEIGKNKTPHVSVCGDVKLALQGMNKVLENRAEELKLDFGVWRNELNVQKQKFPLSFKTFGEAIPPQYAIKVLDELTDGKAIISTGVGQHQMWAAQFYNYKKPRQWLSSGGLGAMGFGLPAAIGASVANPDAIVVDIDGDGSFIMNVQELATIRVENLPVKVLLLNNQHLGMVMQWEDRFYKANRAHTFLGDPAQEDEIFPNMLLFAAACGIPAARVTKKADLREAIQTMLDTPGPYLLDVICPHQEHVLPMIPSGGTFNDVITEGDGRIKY

Regarding `COc1cc(OC)nc(Sc2cccc(Cl)c2C(=O)O)n1` [Pyrithiobac], the pIC50 in assay [1] is 9.13. The “Resistance factor A205F” value in assay [2] is listed as 306. In addition, the “Resistance factor A205V” value in assay [3] was 433. Further, the “Resistance factor W574L” value in assay [4] is recorded as 134,838.
Take `COc1cc(OC)nc(Oc2cccc(Oc3nc(OC)cc(OC)n3)c2C(=O)O)n1` [Bispyribac]: the pIC50 in assay [1] (setting [6]) was 8.80. Also, the “Resistance factor A205F” value in assay [2] came to 7. Further, in assay [3], the “Resistance factor A205V” value amounted to 11. Also, the “Resistance factor W574L” value in assay [4] was determined as 7944.
As for `COc1cc(OC)n2nc(S(=O)(=O)Nc3c(Cl)ccc(C)c3Cl)nc2n1` [Metosulam], the pIC50 in assay [1] was 9.36. The “Resistance factor A205F” value in assay [2] was 1656. Further, in assay [3], the “Resistance factor A205V” value is 34. The “Resistance factor W574L” value in assay [4] was 107.
For `CCCOc1nn(C(=O)[N-]S(=O)(=O)c2ccccc2C(=O)OC)c(=O)n1C.[Na+]` [Propoxycarbazone], the “Resistance factor A205F” value in assay [2] is recorded as 1185. For the same compound, in assay [3], the “Resistance factor A205V” value is on record as 20. The “Resistance factor W574L” value in assay [4] is given as 309.
Turning to `COc1nc(NC(=O)NS(=O)(=O)c2ccccc2C(F)(F)F)nc(C(F)(F)F)n1` [Tritosulfuron], the pIC50 in assay [1] (setting [6]) is 7.73. Further, the “Resistance factor A205F” value in assay [2] is recorded as 5356. Moreover, the “Resistance factor A205V” value in assay [3] was found to be 37. The “Resistance factor W574L” value in assay [4] is reported as 167.
The matching figures for `COc1nn(C(=O)NS(=O)(=O)c2c(C(=O)O)csc2C)c(=O)n1C` [Thiencarbazone]: 7.61, 62, 8 and 16.
`COc1cc(OC)nc(NC(=O)NS(=O)(=O)c2cc(CNS(C)(=O)=O)ccc2C(=O)O)n1` [Mesosulfuron]: in assay [1] (setting [6]), the pIC50 is 8.88. Also, in assay [2], the “Resistance factor A205F” value came out at 293. Moreover, the “Resistance factor A205V” value in assay [3] came to 16. In addition, the “Resistance factor W574L” value in assay [4] is 104.
Consider `COc1nn(C(=O)NS(=O)(=O)c2ccccc2OC(F)(F)F)c(=O)n1C` [Flucarbazone], for which the pIC50 in assay [1] (setting [6]) is 7.61. Moreover, the “Resistance factor A205F” value in assay [2] is on record as 441. The “Resistance factor A205V” value in assay [3] is recorded as 2. Also, the “Resistance factor W574L” value in assay [4] worked out at 7.
With `COc1ncc(F)c2nc(S(=O)(=O)Nc3c(F)cccc3F)nn12` [Florasulam], the pIC50 in assay [1] (setting [6]) was 8.46. For the same compound, the “Resistance factor A205F” value in assay [2] was found to be 1. In assay [3], the “Resistance factor A205V” value amounted to 89. The “Resistance factor W574L” value in assay [4] is 370.
With `COCc1cnc(C2=NC(C)(C(C)C)C(=O)N2)c(C(=O)O)c1` (centres unmarked) [Imazamox], the pIC50 in assay [1] is 5.53. Besides, the “Resistance factor A205V” value in assay [3] amounted to 34. Besides, in assay [4], the “Resistance factor W574L” value is listed as 34. Further, the “annual bluegrass control, resistant plants with the exception of RP6” value in assay [5] (28 days after treatment, summary over RP1–RP5, RP7, RP8) is not above 11%. In assay [5] (RP1, aboveground dry biomass 28 days after treatment, foramsulfuron 29, imazamox 140, simazine 1120 g ha^-1), the “Annual bluegrass biomass RP1” value is 84 % of nontreated control. The “Annual bluegrass control RP1” value in assay [5] (RP1 plants, 28 days after treatment, 2 to 3 leaf stage, foramsulfuron 29, imazamox 140, simazine 1120 g ha^−1) was 2%. The “Annual bluegrass biomass RP2” value in assay [5] (RP2, aboveground dry biomass 28 days after treatment, foramsulfuron 29, imazamox 140, simazine 1120 g ha^-1) is given as 66 % of nontreated control. Besides, the “Annual bluegrass control RP2” value in assay [5] (RP2 plants, 28 days after treatment, 2 to 3 leaf stage, foramsulfuron 29, imazamox 140, simazine 1120 g ha^−1) is on record as 0%. Further, in assay [5] (RP3, aboveground dry biomass 28 days after treatment, foramsulfuron 29, imazamox 140, simazine 1120 g ha^-1), the “Annual bluegrass biomass RP3” value was 94 % of nontreated control. The “Annual bluegrass control RP3” value in assay [5] (RP3 plants, 28 days after treatment, 2 to 3 leaf stage, foramsulfuron 29, imazamox 140, simazine 1120 g ha^−1) stood at 0%. Moreover, the “Annual bluegrass biomass RP4” value in assay [5] (RP4, aboveground dry biomass 28 days after treatment, foramsulfuron 29, imazamox 140, simazine 1120 g ha^-1) is listed as 55 % of nontreated control. Moreover, the “Annual bluegrass control RP4” value in assay [5] (RP4 plants, 28 days after treatment, 2 to 3 leaf stage, foramsulfuron 29, imazamox 140, simazine 1120 g ha^−1) is listed as 0%. The “Annual bluegrass biomass RP5” value in assay [5] (RP5, aboveground dry biomass 28 days after treatment, foramsulfuron 29, imazamox 140, simazine 1120 g ha^-1) is listed as 49 % of nontreated control. For the same compound, the “Annual bluegrass control RP5” value in assay [5] (RP5 plants, 28 days after treatment, 2 to 3 leaf stage, foramsulfuron 29, imazamox 140, simazine 1120 g ha^−1) is recorded as 3%. The “Annual bluegrass biomass RP6” value in assay [5] (RP6, aboveground dry biomass 28 days after treatment, foramsulfuron 29, imazamox 140, simazine 1120 g ha^-1) is 70 % of nontreated control. In assay [5] (RP6 plants, 28 days after treatment, 2 to 3 leaf stage, foramsulfuron 29, imazamox 140, simazine 1120 g ha^−1), the “Annual bluegrass control RP6” value came out at 16%. Further, in assay [5] (RP7, aboveground dry biomass 28 days after treatment, foramsulfuron 29, imazamox 140, simazine 1120 g ha^-1), the “Annual bluegrass biomass RP7” value is on record as 87 % of nontreated control. In addition, the “Annual bluegrass control RP7” value in assay [5] (RP7 plants, 28 days after treatment, 2 to 3 leaf stage, foramsulfuron 29, imazamox 140, simazine 1120 g ha^−1) was found to be 4%. Besides, the “Annual bluegrass biomass RP8” value in assay [5] (RP8, aboveground dry biomass 28 days after treatment, foramsulfuron 29, imazamox 140, simazine 1120 g ha^-1) is 86 % of nontreated control. The “Annual bluegrass control RP8” value in assay [5] (RP8 plants, 28 days after treatment, 2 to 3 leaf stage, foramsulfuron 29, imazamox 140, simazine 1120 g ha^−1) is listed as 0%. Moreover, the “Annual bluegrass control S” value in assay [5] (susceptible (S) plants, 28 days after treatment, 2 to 3 leaf stage, foramsulfuron 29, imazamox 140, simazine 1120 g ha^−1) was 93%. Also, the “Annual bluegrass biomass S” value in assay [5] (susceptible (S), aboveground dry biomass 28 days after treatment, foramsulfuron 29, imazamox 140, simazine 1120 g ha^-1) is listed as 3 % of nontreated control.
As for `COc1cc(OC)nc(Sc2cccc3c2C(=O)OC3C)n1` (centres unmarked) [Pyriftalid], the pIC50 in assay [1] (setting [6]) was 4.70. Besides, the “Resistance factor A205F” value in assay [2] is given as 5. Besides, the “Resistance factor A205V” value in assay [3] stood at 5. For the same compound, the “Resistance factor W574L” value in assay [4] turned out to be 5.
For the compound `COc1cc(OC)nc(NC(=O)NS(=O)(=O)c2ncccc2C(=O)N(C)C)n1` [Nicosulfuron], the negative-log IC50 (pIC50) in assay [1] was 7.15. Also, the “Resistance factor A205F” value in assay [2] is listed as 1401. For the same compound, in assay [3], the “Resistance factor A205V” value is given as 30. Also, in assay [4], the “Resistance factor W574L” value came out at 35.
